According to paper PMC11920646 (Frontiers in Pharmacology, 2025):

Columns and labels:
[1] = humans ref Ferry et al., 1988; cited from earlier work
[2] = target: T1, human PR (Homo sapiens, UniProt P06401); assay: PR reporter gene (transactivation) assay, CHO-Gal4/PR; assay type: cell-based; details: up to 10 µM
T1 construct: host or cells: CHO (DSMZ ACC-110), CHO-Gal4/PR
T1 sequence (P06401 679-913 limits assumed): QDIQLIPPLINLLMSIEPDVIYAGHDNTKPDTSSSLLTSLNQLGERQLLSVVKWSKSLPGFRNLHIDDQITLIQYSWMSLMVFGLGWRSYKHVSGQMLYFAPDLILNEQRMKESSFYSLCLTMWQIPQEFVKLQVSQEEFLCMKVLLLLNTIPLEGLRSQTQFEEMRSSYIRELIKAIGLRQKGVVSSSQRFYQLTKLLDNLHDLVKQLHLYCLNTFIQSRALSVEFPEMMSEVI
Source text: To create the CHO-Gal4/GR, CHO-Gal4/PR, and CHO-Gal4/MR reporter cell lines, first CHO cells were stably transfected with a GAL4-UAS-luciferase reporter construct. Then, the LBD of the GR, PR, or MR (GR Gene ID: 2908, PR Gene ID: 5241, MR Gene ID: 4306, respectively) was cloned into pIRES2-EGFP-GAL4 containing the DBD of GAL4 from pFA-AT2, and then co-transfected into the luciferase-reporter construct-containing CHO cells. These reporter cell lines express the respective nuclear hormone receptor LBD-DBD fusion proteins that control luciferase expression of a GAL4-upstream activation sequence (UAS)-luciferase reporter construct, allowing for detection of ligand- or compound-induced transactivation at the GR, PR, or MR by measuring luciferase activity.
Cryo-preserved CHO-Gal4/GR, CHO-Gal4/PR, and CHO-Gal4/MR cells were plated in medium at 7,500 cells/well in 384-well assay plates (25 μL/well), and incubated for 24 h. […] Following a 4-h incubation, cells were lysed and luminescence measured using the EMCCD camera FLIPR®Tetra (Molecular Devices, Silicon Valley, CA, United States).
Transactivation (i.e., gene activation) was expressed as a percentage of the reference agonist activity (Supplementary Material), using Genedata Screener® v15.0.5 software (Basel, Switzerland).
Transactivation was calculated according to this equation: […]

[3] = target: T2, human MR (Homo sapiens, UniProt P08235); assay: Human MR radioligand binding (3H-aldosterone, recombinant MR from Sf9 cells); details: 3H-aldosterone 0.4 nM, 20 h, 4°C
T2 construct: host or cells: insect Sf9 cells
T2 sequence (P08235 1-984): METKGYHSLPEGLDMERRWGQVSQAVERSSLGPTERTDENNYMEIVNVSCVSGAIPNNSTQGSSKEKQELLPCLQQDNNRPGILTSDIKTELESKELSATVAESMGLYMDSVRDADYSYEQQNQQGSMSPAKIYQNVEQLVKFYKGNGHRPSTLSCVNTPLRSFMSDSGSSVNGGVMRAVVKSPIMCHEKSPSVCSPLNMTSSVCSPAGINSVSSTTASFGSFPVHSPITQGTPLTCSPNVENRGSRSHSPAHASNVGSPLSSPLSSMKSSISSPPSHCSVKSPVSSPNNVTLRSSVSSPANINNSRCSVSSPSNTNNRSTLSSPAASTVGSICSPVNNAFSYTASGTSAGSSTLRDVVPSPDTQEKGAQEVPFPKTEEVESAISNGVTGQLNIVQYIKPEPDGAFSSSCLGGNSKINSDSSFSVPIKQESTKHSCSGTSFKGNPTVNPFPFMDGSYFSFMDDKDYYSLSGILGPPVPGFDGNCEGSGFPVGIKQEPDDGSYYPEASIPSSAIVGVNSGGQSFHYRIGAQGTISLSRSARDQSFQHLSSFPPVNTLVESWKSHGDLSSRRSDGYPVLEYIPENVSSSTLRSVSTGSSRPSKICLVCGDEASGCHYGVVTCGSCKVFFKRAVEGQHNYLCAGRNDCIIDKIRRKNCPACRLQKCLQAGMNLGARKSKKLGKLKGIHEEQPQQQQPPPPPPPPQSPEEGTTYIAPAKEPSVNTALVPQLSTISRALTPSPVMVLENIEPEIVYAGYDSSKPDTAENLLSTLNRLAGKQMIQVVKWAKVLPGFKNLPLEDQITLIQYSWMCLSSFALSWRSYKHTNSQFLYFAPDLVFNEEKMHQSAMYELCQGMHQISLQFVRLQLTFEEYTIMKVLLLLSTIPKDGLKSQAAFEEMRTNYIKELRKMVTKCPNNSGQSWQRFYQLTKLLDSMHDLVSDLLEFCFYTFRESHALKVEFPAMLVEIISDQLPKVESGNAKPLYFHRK
Description: (§1) Scintillation counting of bound radioligand was conducted after 6 and 20 h of incubation (at 4°C), respectively. […] Scintillation counting of bound radioligand was conducted after 20 h of incubation at 4°C.
(§2) The same statistical methods were used for the MR binding assays, but using MathIQ™ software (ID Business Solutions Ltd., Woking, United Kingdom).
(§3) Percent inhibition of control specific binding was calculated as follows: […]
(§4) The half-maximal inhibitory concentration (IC50; i.e., the concentration causing a half-maximal inhibition of control specific binding) and Hill coefficients (nH) were determined by non-linear regression analysis of the competition curves generated with mean replicate values using the following Hill equation curve fitting: Y=D+ A-D1+ C/C50nH , where Y = specific binding, A = left asymptote of the curve, D = right asymptote of the curve, C = compound concentration, C50 = IC50, and nH = slope factor.
(§5) The inhibition constants (Ki) were calculated using the Cheng Prusoff equation:
(§6) where L = concentration of radioligand employed in the assay, and KD = affinity of the radioligand for the receptor (a Scatchard plot was used to determine the KD) (Cheng and Prusoff, 1973).

[4] = target: T3, human progesterone receptor (PR) (Homo sapiens, UniProt P06401); assay: Human PR radioligand binding (3H-progesterone, T47D cells); details: read-out: inhibition of 3H-progesterone binding; footnote: at 10 µM
T3 sequence (P06401 636-933 limits assumed): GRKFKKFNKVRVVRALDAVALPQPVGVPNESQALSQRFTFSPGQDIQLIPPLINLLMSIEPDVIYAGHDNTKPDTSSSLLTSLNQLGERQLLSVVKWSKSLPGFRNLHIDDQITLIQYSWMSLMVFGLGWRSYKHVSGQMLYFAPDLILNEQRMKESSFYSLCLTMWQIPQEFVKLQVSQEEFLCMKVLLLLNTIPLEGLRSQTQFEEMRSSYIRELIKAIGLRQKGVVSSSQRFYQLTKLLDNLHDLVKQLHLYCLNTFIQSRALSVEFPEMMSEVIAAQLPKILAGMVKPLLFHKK
Description: as §1, §2, §3, §4, §5, §6

- PR transactivation [2]: no detectable transactivation
- IC50 ([3]; read-out: Mineralocorticoid receptor IC50): 0.78 nM
- Ki ([3]; read-out: Mineralocorticoid receptor Ki): 0.26 nM
- inhibition at 10 µM [4]: 12.1 to 30.7%
Compound: C[C@]12C=CC(=O)C=C1CC[C@@H]1[C@@H]2[C@@H](O)C[C@@]2(C)[C@H]1CC[C@]2(O)C(=O)CO [Prednisolone]
- t½ [1]: ~2.5 h
